From US20240398830A1, “COMPOSITIONS AND USES THEREOF FOR TREATMENT OF NEUROLOGICAL DISORDERS” (UNIVERSITY OF SOUTH FLORIDA, priority 2021, published 2024)

Key:
Type in all cases: cell-based
FKBP51 [1] = assay: Immunoblot analysis of dexamethasone induced FKBP51 levels in H4 human neuroglioma cell line; conditions: 10 μM compound, dexamethasone containing media, 24 h, immunoblot (FIG. 1)
Protocol: FIGS. 1A-1B show qPCR (FIG. 1A) and immunoblot analysis (FIG. 1B) of FKBP51 levels in cultures of H4 human neuroglioma cell line treated with methyl acetate vehicle (MeOAc) or ethanol vehicle (ETOH) or 10 μM 15-deoxy-12,14-prostaglandin J2 (J2) or 10 μM 9-nitro oleic acid (9N), or 10 μM 10-nitro oleic acid (ION) in control (dimethyl sulfoxide; DMSO) or dexamethasone (Dex) containing media for 6 h and 24 h. Cultures incubated with treatments for 6 h were used for RNA analysis whereas cultures incubated with treatments for 24 h were used for protein analysis. Bars represent mean±SEM; n=3 independent experiments.

FKBP51 [2] = assay: Immunoblot analysis of dexamethasone induced FKBP51 levels in HT-22 mouse hippocampal neuronal cell line; conditions: 20 μM compound, 500 nM dexamethasone, immunoblot (FIG. 2)
[3] = tested on: glucocorticoid receptor response element (GRE); assay: GRE reporter luciferase assay in dexamethasone treated HeLa cells; conditions: dexamethasone treated HeLa cells transfected with empty vector or FKBP51 vector (FIG. 3)

In the case of `CCCCCCCC/C(=C\CCCCCCCC(=O)O)[N+](=O)[O-]` [10-nitro oleic acid, 10-nitro-9E-octadecenoic acid], the “dexamethasone induced FKBP51 protein levels” value (FKBP51 [1]) was “inhibit dexamethasone induced FKBP51 protein levels”, the “dexamethasone induced FKBP51 protein levels” value (FKBP51 [2]) was “inhibit dexamethasone induced FKBP51 protein levels” and the “glucocorticoid receptor response (GRE reporter luciferase)” value (“glucocorticoid receptor response” for short) [3] was “alter glucocorticoid receptor response”.
For `CCCCCCCC/C=C(\CCCCCCCC(=O)O)[N+](=O)[O-]` [9-nitro oleic acid, 9-nitro-9E-octadecenoic acid], the “dexamethasone induced FKBP51 protein levels” value (FKBP51 [1]) was “inhibit dexamethasone induced FKBP51 protein levels”, the “dexamethasone induced FKBP51 protein levels” value (FKBP51 [2]) was “inhibit dexamethasone induced FKBP51 protein levels” and the “glucocorticoid receptor response” value [3] was “alter glucocorticoid receptor response”.
For `CCCCC/C=C/C=C1/C(=O)C=C[C@@H]1C/C=C\CCCC(=O)O` [15-deoxy-12,14-prostaglandin J2, 15-deoxy-Δ12,14-prostaglandin J2], the “dexamethasone induced FKBP51 protein levels” value (FKBP51 [1]) was “inhibit dexamethasone induced FKBP51 protein levels”, the “dexamethasone induced FKBP51 protein levels” value (FKBP51 [2]) was “inhibit dexamethasone induced FKBP51 protein levels” and the “glucocorticoid receptor response” value [3] was “alter glucocorticoid receptor response”.
